This is an account of results in US20240317735A1, “HYDROISOQUINOLINE OR HYDRONAPHTHYRIDINE COMPOUNDS FOR THE TREATMENT OF AUTOIMMUNE DISEASE” (Hoffmann-La Roche Inc., priority 2020, published 2024).

pIC50: −log10 of the molar value.

This assay concerns the target T1, human TLR7 (Homo sapiens, UniProt Q9NYK1).
T1 construct: host or cells: HEK293 (HEK-Blue hTLR7)
T1 sequence (Q9NYK1 27-1049): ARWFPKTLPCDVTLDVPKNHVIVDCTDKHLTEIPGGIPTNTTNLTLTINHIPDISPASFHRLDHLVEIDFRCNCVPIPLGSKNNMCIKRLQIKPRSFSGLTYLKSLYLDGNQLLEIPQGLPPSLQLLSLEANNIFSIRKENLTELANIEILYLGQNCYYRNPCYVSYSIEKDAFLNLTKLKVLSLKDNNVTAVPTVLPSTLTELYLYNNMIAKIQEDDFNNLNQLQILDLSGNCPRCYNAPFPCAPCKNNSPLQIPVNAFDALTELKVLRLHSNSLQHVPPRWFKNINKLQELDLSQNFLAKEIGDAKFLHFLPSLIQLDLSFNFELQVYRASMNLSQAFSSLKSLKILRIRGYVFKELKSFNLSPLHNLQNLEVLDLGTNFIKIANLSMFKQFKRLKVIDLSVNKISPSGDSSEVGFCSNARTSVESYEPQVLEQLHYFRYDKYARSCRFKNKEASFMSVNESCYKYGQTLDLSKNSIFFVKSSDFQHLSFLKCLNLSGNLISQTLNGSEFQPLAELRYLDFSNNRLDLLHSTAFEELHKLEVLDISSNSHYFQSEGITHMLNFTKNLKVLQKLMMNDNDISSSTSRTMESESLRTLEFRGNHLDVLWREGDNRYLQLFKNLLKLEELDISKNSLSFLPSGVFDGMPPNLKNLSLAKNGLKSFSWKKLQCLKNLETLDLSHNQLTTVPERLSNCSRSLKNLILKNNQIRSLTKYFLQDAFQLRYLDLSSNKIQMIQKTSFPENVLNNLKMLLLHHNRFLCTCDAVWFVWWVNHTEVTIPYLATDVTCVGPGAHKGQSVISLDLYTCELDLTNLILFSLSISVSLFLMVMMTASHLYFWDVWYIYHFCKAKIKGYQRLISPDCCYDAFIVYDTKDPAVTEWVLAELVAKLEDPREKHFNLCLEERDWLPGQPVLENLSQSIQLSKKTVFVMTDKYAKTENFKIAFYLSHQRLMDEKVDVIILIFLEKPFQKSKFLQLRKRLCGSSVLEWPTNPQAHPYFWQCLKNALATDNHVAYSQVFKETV
The assay is described as follows: HEK293-Blue-hTLR-7 cells assay (SEAP reporter, R848 stimulation). Format: cell-based. The conditions noted are these: HEK293-Blue-hTLR7 cells, R848, 20 hrs; read-out: HEK/hTLR7 IC50. As for the experimental part:
The following tests were carried out in order to determine the activity of the compounds of formula (I) and (Ia) in HEK293-Blue-hTLR-7/8/9 cells assay.
A stable HEK293-Blue-hTLR-7 cell line was purchased from InvivoGen (Cat. #: hkb-htlr7, San Diego, California, USA). These cells were originally designed for studying the stimulation of human TLR7 by monitoring the activation of NF-κB. A SEAP (secreted embryonic alkaline phosphatase) reporter gene was placed under the control of the IFN-β minimal promoter fused to five NF-κB and AP-1-binding sites. The SEAP was induced by activating NF-κB and AP-1 via stimulating HEK-Blue hTLR7 cells with TLR7 ligands. Therefore the reporter expression w % as declined by TLR7 antagonist under the stimulation of a ligand, such as R848 (Resiquimod), for incubation of 20 hrs. The cell culture supernatant SEAP reporter activity was determined using QUANTI-Blue™ kit (Cat. #: rep-qb1, Invivogen, San Diego, Ca, USA) at a wavelength of 640 nm, a detection medium that turns purple or blue in the presence of alkaline phosphatase.
HEK293-Blue-hTLR7 cells were incubated at a density of 250,000˜450,000 cells/mL in a volume of 170 μL in a 96-well plate in Dulbecco's Modified Eagle's medium (DMEM) containing 4.5 g/L glucose, 50 U/mL penicillin, […], […] Normocin, 2 mM L-glutamine, 10% (v/v) heat-inactivated fetal bovine serum with addition of 20 μL test compound in a serial dilution in the presence of final DMSO at 1% and 10 μL of 20 uM R848 in above DMEM, perform incubation under 37° C. in a C02 incubator for 20 hrs. Then 20 μL of the supernatant from each well was incubated with 180 μL Quanti-blue substrate solution at 37° C. for 2 hrs and the absorbance was read at 620˜655 nm using a spectrophotometer. The signaling pathway that TLR7 activation leads to downstream NF-κB activation has been widely accepted, and therefore similar reporter assay was modified for evaluating TLR7 antagonist.
On to `C[C@H]1CN(c2ccnc3c2cnn3C)Cc2ccc(O[C@@H]3C[C@H]4CNCCN4C3)cc21` [Example 42, (4R)-4-methyl-2-(1-methylpyrazolo[3,4-b]pyridin-4-yl)-6-[[(7R,8aS)-1,2,3,4,6,7,8,8a-octahydropyrrolo[1,2-a]pyrazin-7-yl]oxy]-3,4-dihydro-1H-isoquinoline], for which the pIC50 was 8.52. Then `C[C@H]1CN(c2ccnc3c2cnn3C)Cc2ccc(OC[C@@H]3CNCCN3C=O)cc21` [Example 45, (2S)-2-[[(4R)-4-methyl-2-(1-methylpyrazolo[3,4-b]pyridin-4-yl)-3,4-dihydro-1H-isoquinolin-6-yl]oxymethyl]piperazine-1-carbaldehyde], with 7.92; and `Cc1cc(N2Cc3ccc(OC4CCNCC4)nc3[C@@H](C)C2)c2cnn(C)c2n1` [Example 64, (8S)-6-(1,6-dimethylpyrazolo[3,4-b]pyridin-4-yl)-8-methyl-2-(4-piperidyloxy)-7,8-dihydro-5H-1,6-naphthyridine], with 8.30.

Regarding `Cc1cc(N2Cc3cnc(N4CC5(CNCCO5)C4)cc3[C@@H](C)C2)c2cnn(C)c2n1` [Example 79, 2-[(5R)-7-(1,6-dimethylpyrazolo[3,4-b]pyridin-4-yl)-5-methyl-6,8-dihydro-5H-2,7-naphthyridin-3-yl]-5-oxa-2,8-diazaspiro[3.5]nonane], the pIC50 was 7.72. For `C[C@H]1CN(c2ccnc3c2cnn3C)Cc2ccc(N3CCNCC3)nc21` [Example 62, (8S)-8-methyl-6-(1-methylpyrazolo[3,4-b]pyridin-4-yl)-2-piperazin-1-yl-7,8-dihydro-5H-1,6-naphthyridine], the pIC50 was 8.30. Then `C[C@H]1CN(c2ccnc3c2cnn3C)Cc2ccc(N3CCN(S(=O)(=O)C4CCNC4)CC3)cc21` (stereo partly drawn) [Example 33, (4R)-4-methyl-2-(1-methylpyrazolo[3,4-b]pyridin-4-yl)-6-(4-pyrrolidin-3-ylsulfonylpiperazin-1-yl)-3,4-dihydro-1H-isoquinoline], with 8.22; and `C[C@H]1CN(c2ccnc3c2cnn3C)Cc2ccc(N3CC4(CCNC4)CC3=O)cc21` (stereo partly drawn) [Example 52, 2-[(4R)-4-methyl-2-(1-methylpyrazolo[3,4-b]pyridin-4-yl)-3,4-dihydro-1H-isoquinolin-6-yl]-2,7-diazaspiro[4.4]nonan-3-one], with 8.05.

Take `Cc1cc(N2Cc3ccc(N4CCNCC4)nc3[C@@H](C)C2)c2cnn(C)c2n1` [Example 66, (8S)-6-(1,6-dimethylpyrazolo[3,4-b]pyridin-4-yl)-8-methyl-2-piperazin-1-yl-7,8-dihydro-5H-1,6-naphthyridine]: the pIC50 was 8.10. `CO[C@H]1CN(c2ccc3c(n2)[C@@H](C)CN(c2cc(C)nc4c2cnn4C)C3)CC[C@@H]1N` [Example 65, (3S,4S)-3-methoxy-1-[(8S)-6-(1,6-dimethylpyrazolo[3,4-b]pyridin-4-yl)-8-methyl-7,8-dihydro-5H-1,6-naphthyridin-2-yl]piperidin-4-amine]: the pIC50 is 8.22.

On to `C[C@H]1CN(c2ccnc3c2cnn3C)Cc2ccc(N3CCNCC3)cc21` [Example 1, (4R)-4-methyl-2-(1-methylpyrazolo[3,4-b]pyridin-4-yl)-6-piperazin-1-yl-3,4-dihydro-1H-isoquinoline], for which the pIC50 is 8.52. As to `C[C@H]1CN(c2ccnc3c2cnn3C)Cc2ccc(N3C[C@@]4(CCNC4)CC3=O)cc21` (single isomer, unassigned) [Example 53], the pIC50 was 7.74. Then `Cc1cc(N2Cc3ccc(N4CCC5(CCNCC5)CC4)cc3C(C)C2)c2cnn(C)c2n1` (stereo not shown) [Example 5, 3-[2-(1,6-dimethylpyrazolo[3,4-b]pyridin-4-yl)-4-methyl-3,4-dihydro-1H-isoquinolin-6-yl]-3,9-diazaspiro[5.5]undecane], with 8.52; and `C[C@H]1CN(c2ccnc3c2cnn3C)Cc2ccc(N3C[C@@H]4CCNC[C@@H]4C3=O)cc21` (single isomer, unassigned) [Example 57], with 8.10.
